We go through two compounds from patent US3984395A, “Method of isolating gentamicin C2a” (Schering Corporation, priority 1974, dated 1976).

Values after ≈ are worked out from the molar mass of the structure shown.

Data set [1] is described as follows: acute intravenous LD50 in mice. To be noted: mouse, in vivo, male CF-1 mice, 20 grams each.
Data set [2] relates to gram-positive and gram-negative bacteria. The data set is described as follows: antibacterial spectrum in vitro. It is filed as cell-based. The note with it: compared with gentamicin C1, C1a, and C2. An excerpt:
Thus, the antiobiotic may be used for substantially the same anti-bacterial indications and in the same manner as disclosed in U.S. Pat. No. 3,091,572. For example, it is useful in wash solutions, for sanitary purposes, as in the washing of hands and the cleaning of equipment in contaminated rooms.
(§1) In Table 1, set forth below is shown the in vitro minimal inhibitory concentration (MIC) of gentamicin C2a against representative gram-positive and gram-negative bacteria. The results are derived using the standard tube dilution method in Mueller-Hinton broth.

The test system of data set [3] is Escherichia coli ATCC 10536. The data set is described as follows: in vitro MIC, standard tube dilution method. It is filed as cell-based. The note with it: ATCC10536, Mueller-Hinton broth, read-out: minimal inhibitory concentration (MIC).
Excerpt: as §1

The test system of data set [4] is Pseudomonas aeruginosa Travers. The data set is described as follows: in vitro MIC, standard tube dilution method. The format is cell-based. To be noted: Pseudomonas aeruginosa Travers (Gentamicin resistant); Mueller-Hinton broth; read-out: minimal inhibitory concentration (MIC).
Excerpt: as §1

Another data set relates to Bacillus subtilis 663. The data set is described as follows: in vitro MIC, standard tube dilution method. It is filed as cell-based. The note with it: Mueller-Hinton broth, read-out: minimal inhibitory concentration (MIC).
Excerpt: as §1

The test system of data set [5] is Staphylococcus aureus 6538P. The data set is described as follows: in vitro MIC, standard tube dilution method. It is filed as cell-based. To be noted: Mueller-Hinton broth, read-out: minimal inhibitory concentration (MIC).
Excerpt: as §1

The subject of data set [6] is Staphylococcus aureus 59N. The data set is described as follows: in vitro MIC, standard tube dilution method. The format is cell-based. The note with it: Mueller-Hinton broth, read-out: minimal inhibitory concentration (MIC).
Excerpt: as §1

The subject of data set [7] is Pseudomonas aeruginosa St 138. The data set is described as follows: in vitro MIC, standard tube dilution method. The format is cell-based. To be noted: ST138; Pseudomonas aeruginosa St 138 (Gentamicin resistant); Mueller-Hinton broth; read-out: minimal inhibitory concentration (MIC).
Excerpt: as §1

Data set [8] deals with Pseudomonas aeruginosa 762. The data set is described as follows: in vitro MIC, standard tube dilution method. The note with it: Mueller-Hinton broth, read-out: minimal inhibitory concentration (MIC). It is filed as cell-based.
Excerpt: as §1

The next data set relates to Klebsiella pneumoniae 17. The data set is described as follows: in vitro MIC, standard tube dilution method. It is filed as cell-based. To be noted: Mueller-Hinton broth, read-out: minimal inhibitory concentration (MIC).
Excerpt: as §1

A further data set relates to Streptococcus pyogenes C. The data set is described as follows: in vitro MIC, standard tube dilution method. It is filed as cell-based. To be noted: Mueller-Hinton broth, read-out: minimal inhibitory concentration (MIC).
Excerpt: as §1

In data set [9] the test system is Staphylococcus aureus Ziegler. The data set is described as follows: in vitro MIC, standard tube dilution method. The note with it: Mueller-Hinton broth, read-out: minimal inhibitory concentration (MIC). The format is cell-based.
Excerpt: as §1

Data set [10] relates to Pseudomonas aeruginosa 3223. The data set is described as follows: in vitro MIC, standard tube dilution method. The format is cell-based. The note with it: Mueller-Hinton broth, read-out: minimal inhibitory concentration (MIC).
Excerpt: as §1

For the next data set, the system named is Salmonella typhi. B. The data set is described as follows: in vitro MIC, standard tube dilution method. The format is cell-based. To be noted: Salmonella enterica, read-out: minimal inhibitory concentration (MIC).
Excerpt: as §1

The test system of data set [11] is Pseudomonas aeruginosa 20. The data set is described as follows: in vitro MIC, standard tube dilution method. It is filed as cell-based. To be noted: Mueller-Hinton broth, read-out: minimal inhibitory concentration (MIC).
Excerpt: as §1

For data set [12], the system named is Klebsiella pneumoniae 3694. The data set is described as follows: in vitro MIC, standard tube dilution method. The format is cell-based. To be noted: Mueller-Hinton broth, read-out: minimal inhibitory concentration (MIC).
Excerpt: as §1

A further data set has as its system Escherichia coli JR66. The data set is described as follows: in vitro MIC, standard tube dilution method. The format is cell-based. To be noted: Mueller-Hinton broth, read-out: minimal inhibitory concentration (MIC).
Excerpt: as §1

Data set [13] has as its system Escherichia coli La290R55. The data set is described as follows: in vitro MIC, standard tube dilution method. The format is cell-based. The note with it: LA290R55, read-out: minimal inhibitory concentration (MIC).
Excerpt: as §1

In general, LD50 refers to the dose at which mortality reaches 50%.

`CN[C@@H]1[C@@H](O)[C@@H](O[C@@H]2[C@@H](O)[C@H](O[C@H]3O[C@H]([C@@H](C)N)CC[C@H]3N)[C@@H](N)C[C@H]2N)OC[C@]1(C)O` [gentamicin C2] came in with an LD50 in [1] of 83 mg/kg.
Compound `CN[C@@H]1[C@@H](O)[C@@H](O[C@@H]2[C@@H](O)[C@H](O[C@H]3O[C@H]([C@H](C)N)CC[C@H]3N)[C@@H](N)C[C@H]2N)OC[C@]1(C)O` [gentamicin C2a] registered an LD50 in [1] of 110 mg/kg. Also, the “antibacterial spectrum in vitro” value in [2] was “substantially the same antibacterial spectrum in vitro as do gentamicin C1, C1a, and C2”. Besides, the MIC was 0.3 µg/mL (≈ 0.647 µM) in data set [3]; above 25 µg/mL in data set [4]; 0.1 µg/mL (≈ 0.216 µM) in the data set on Bacillus subtilis 663; 0.3 µg/mL (≈ 0.647 µM) in data set [5]; 0.3 µg/mL (≈ 0.647 µM) in [6]; above 25 µg/mL in [7]. The MIC turned out to be 0.8 µg/mL (≈ 1.73 µM) in data set [8]; 0.8 µg/mL (≈ 1.73 µM) with Klebsiella pneumoniae 17; 7.5 µg/mL (≈ 16.2 µM) in the data set on Streptococcus pyogenes C; 0.3 µg/mL (≈ 0.647 µM) in data set [9]; 0.3 µg/mL (≈ 0.647 µM) in [10]; 0.3 µg/mL (≈ 0.647 µM) with Salmonella typhi. B.. In addition, the MIC in data set [11] turned out to be 3 µg/mL (≈ 6.47 µM); in data set [12], 17.5 µg/mL (≈ 37.8 µM); in the data set on Escherichia coli JR66 it was 7.5 µg/mL (≈ 16.2 µM); in [13], 17.5 µg/mL (≈ 37.8 µM).
